Data taken from ChEMBL document CHEMBL1150580, “Microsphaerones A and B, two novel gamma-pyrone derivatives from the sponge-derived fungus Microsphaeropsis sp” (J Nat Prod, 2002).
Activity calls are given as the source filed them. The rule behind the calls is not given here.

Experiments:
Spodoptera littoralis = assay: Insecticidal activity against Spodoptera littoralis larvae; format: functional, organism-based
Artemia salina = assay: Toxicity to Artemia salina; format: organism-based; conditions: in vivo

C[C@@H](CC(=O)NC(=O)c1coc(/C=C/C=C/CCCCCCC(=O)O)cc1=O)C(=O)O [MICROSPHAERONE A]
Activity (Spodoptera littoralis): inactive
Activity (Artemia salina): Non-toxic

NC(=O)c1coc(/C=C/C=C/CCCCCCC(=O)O)cc1=O [MICROSPHAERONE B]
Activity (Spodoptera littoralis): inactive
Activity (Artemia salina): Non-toxic
